# Measurements from publication PMC11231114 (EJNMMI Research, 2024).
# How the values were obtained:
# [1] = test system: GPCRs, drug transporters, ion channels, nuclear receptors and enzymes; experiment: Radioligand binding assays, remaining 65 assays of the panel of 68; conditions: 1 µM
# Method: (§1) The possibility of pharmacological interactions of SYN2 was assessed in vitro in radioligand binding assays on key pharmacological target classes including GPCRs, drug transporters, ion channels, nuclear receptors and enzymes (LeadProfilingScreen SafetyScreen, PP68, Panel of 68 receptors, Eurofins Panlabs, Inc.). There was only one SYN2 concentration of 1 µM used in the study.
# (§2) IC50 values from pharmacodynamics assessment were determined by a non-linear, least squares regression analysis using MathIQ™ (ID Business Solutions Ltd., UK). Where inhibition constants (Ki) are presented, the Ki values were calculated using the equation of Cheng and Prusoff using the observed IC50 of the tested compound, the concentration of radioligand employed in the assay, and the historical values for the KD of the ligand (obtained experimentally at Eurofins Panlabs, Inc.). Where presented, the Hill coefficient (nH), defining the slope of the competitive binding curve, was calculated using MathIQ™.
# [2] = Expected human Cmax after body surface area correction; conditions: read-out: expected Cmax, proposed maximum limit dose of 100 µg (2 µg/kg for a 50-kg patient)
# [3] = molecular target: T1, muscarinic M2 acetylcholine receptor (Homo sapiens, UniProt P08172); experiment: Radioligand binding assay (LeadProfilingScreen SafetyScreen panel); conditions: 1 µM
# T1 construct: purchased Eurofins Panlabs, Inc. PP68
# T1 sequence (P08172 1-466): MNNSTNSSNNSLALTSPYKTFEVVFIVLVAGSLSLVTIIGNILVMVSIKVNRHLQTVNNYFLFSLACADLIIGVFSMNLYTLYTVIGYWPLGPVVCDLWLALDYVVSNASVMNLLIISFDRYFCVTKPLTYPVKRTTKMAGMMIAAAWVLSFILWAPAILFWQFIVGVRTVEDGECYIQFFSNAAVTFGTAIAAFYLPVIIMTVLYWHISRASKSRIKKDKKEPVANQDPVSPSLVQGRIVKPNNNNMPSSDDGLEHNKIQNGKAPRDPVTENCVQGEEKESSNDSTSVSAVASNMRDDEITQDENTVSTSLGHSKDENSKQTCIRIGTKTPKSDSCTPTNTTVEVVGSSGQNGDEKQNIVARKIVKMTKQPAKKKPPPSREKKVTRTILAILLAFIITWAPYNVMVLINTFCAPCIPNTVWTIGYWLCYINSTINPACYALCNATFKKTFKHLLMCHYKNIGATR
# Method: as §1, §2
# potassium channel hERG = molecular target: T2, potassium channel hERG (Homo sapiens, UniProt Q12809); experiment: as above; conditions: 1 µM
# T2 construct: purchased Eurofins Panlabs, Inc. PP68
# Method: as §1, §2
# [4] = molecular target: T3, muscarinic acetylcholine M1 receptor (Homo sapiens, UniProt P11229); experiment: as above; conditions: 1 µM
# T3 construct: purchased Eurofins Panlabs, Inc. PP68
# T3 sequence (P11229 1-460): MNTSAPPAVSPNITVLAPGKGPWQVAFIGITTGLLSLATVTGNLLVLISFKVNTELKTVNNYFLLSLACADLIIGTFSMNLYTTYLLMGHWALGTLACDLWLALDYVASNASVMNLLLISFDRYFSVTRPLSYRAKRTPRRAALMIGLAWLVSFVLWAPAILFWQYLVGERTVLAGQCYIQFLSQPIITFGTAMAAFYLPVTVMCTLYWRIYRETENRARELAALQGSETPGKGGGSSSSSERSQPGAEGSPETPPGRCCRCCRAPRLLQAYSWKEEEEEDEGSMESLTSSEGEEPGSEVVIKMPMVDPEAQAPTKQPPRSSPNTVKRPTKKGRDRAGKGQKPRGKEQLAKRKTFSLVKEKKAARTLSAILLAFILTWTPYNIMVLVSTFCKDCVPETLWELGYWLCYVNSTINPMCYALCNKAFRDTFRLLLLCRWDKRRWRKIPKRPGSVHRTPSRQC
# Method: as §1, §2
# muscarinic M2 = molecular target: T4, muscarinic M2 (Homo sapiens, UniProt P08172); experiment: Functional assay at several concentrations; type: biochemical; conditions: antagonistic effect
# T4 sequence (P08172 1-466): T1 sequence (P08172 1-466)
# Method: (§3) IC50 values from pharmacodynamics assessment were determined by a non-linear, least squares regression analysis using MathIQ™ (ID Business Solutions Ltd., UK). […] Where presented, the Hill coefficient (nH), defining the slope of the competitive binding curve, was calculated using MathIQ™.
# hERG = hERG (Homo sapiens, UniProt Q12809); experiment: Functional assay at several concentrations; type: biochemical; conditions: antagonistic effect
# Method: as §3
# Wistar rats = experiment: Extended single dose toxicity study, i.v. 2 mg/kg b.w.
# Method: Throughout the experiment, the animals’ behaviour was observed and their weight recorded.
# The normality distribution was tested with Shapiro-Wilk test. For homogeneity of variance Brown-Forsythe test has been used. For normal distribution and homogeneous variances results, Student’s t-test was used. In the absence of normal distribution, Mann-Whitney test was used. In the case of non-homogenous variance, Cochrane-Cox test was used.
# [5] = Plasma pharmacokinetics of non-radioactive SYN2, single i.v. 2 mg/kg, LC-MS/MS; type: in vivo, Wistar rats
# Method: The pharmacokinetic study was also conducted using non-radioactive reference standard of [^18F]SYN2 after a single i.v. administration at a dose of 2 mg/kg in rats. Blood samples of about 0.5 ml were collected in K3-EDTA tubes at pre-dose time and 4 min, 15 min, 30 min, 60 min, 4 h, and 24 h after injection (three rats were used at each time point, each rat was bled twice). Blood samples were then centrifuged at approx. 3270 g at 5 ± 3 °C for 10 min to extract plasma, divided in two aliquots and analysed (54 plasma samples in total). The concentrations of SYN2 were determined according to a LC-MS/MS validated method according to the Guidance for Industry (FDA) and Guidance on Validation of Bioanalytical Methods (EMA).
# rat hepatocytes = experiment: Metabolite profiling in cryopreserved hepatocytes (in vitro MetID); type: in vitro ADME; conditions: for Relative abundance of metabolites calculated as % of parent (SYN2), Rat: 1 µM SYN2, 37 °C
# Method: (§4) The metabolite profiling and characterization experiment of SYN2 molecule (in vitro MetID, Admescope) was conducted to evaluate potential metabolic pathways. In order to characterize the metabolites of SYN2, the compound was incubated in cryopreserved rat, dog and human hepatocytes. Prior to the incubation, the hepatocytes were thawed, suspended in Williams medium E and then centrifuged to receive a target density of about 1 million cells/ml. A SYN2 solution of 1 µM was then added to the hepatocyte suspension and incubated at 37 °C for 0, 30 and 60 min. The incubations were stopped by the addition of acetonitrile, then frozen and centrifuged to remove precipitated proteins. Supernatants were then analysed with ultra-performance liquid chromatography (UPLC) and high-resolution mass spectrometry (HRMS).
# (§5) Compound Discoverer (CD) was used for data mining with manual confirmation for metabolite profiling and characterization.
# dog hepatocytes = experiment: as above; type: in vitro ADME; conditions: for Relative abundance of metabolites calculated as % of parent (SYN2), Dog: 1 µM SYN2, 37 °C
# Method: as §4, §5
# human hepatocytes = experiment: as above; type: in vitro ADME; conditions: for Relative abundance of metabolites calculated as % of parent (SYN2), Human: 1 µM SYN2, 37 °C
# Method: as §4, §5
# [6] = clinical examinations, 2 mg/kg b.w. i.v., treated vs control
# [7] = clinical-chemical examinations, 2 mg/kg b.w. i.v., treated vs control
# [8] = post mortem examination, 2 mg/kg b.w. i.v., treated vs control
# T2 sequence (Q12809 whole entry): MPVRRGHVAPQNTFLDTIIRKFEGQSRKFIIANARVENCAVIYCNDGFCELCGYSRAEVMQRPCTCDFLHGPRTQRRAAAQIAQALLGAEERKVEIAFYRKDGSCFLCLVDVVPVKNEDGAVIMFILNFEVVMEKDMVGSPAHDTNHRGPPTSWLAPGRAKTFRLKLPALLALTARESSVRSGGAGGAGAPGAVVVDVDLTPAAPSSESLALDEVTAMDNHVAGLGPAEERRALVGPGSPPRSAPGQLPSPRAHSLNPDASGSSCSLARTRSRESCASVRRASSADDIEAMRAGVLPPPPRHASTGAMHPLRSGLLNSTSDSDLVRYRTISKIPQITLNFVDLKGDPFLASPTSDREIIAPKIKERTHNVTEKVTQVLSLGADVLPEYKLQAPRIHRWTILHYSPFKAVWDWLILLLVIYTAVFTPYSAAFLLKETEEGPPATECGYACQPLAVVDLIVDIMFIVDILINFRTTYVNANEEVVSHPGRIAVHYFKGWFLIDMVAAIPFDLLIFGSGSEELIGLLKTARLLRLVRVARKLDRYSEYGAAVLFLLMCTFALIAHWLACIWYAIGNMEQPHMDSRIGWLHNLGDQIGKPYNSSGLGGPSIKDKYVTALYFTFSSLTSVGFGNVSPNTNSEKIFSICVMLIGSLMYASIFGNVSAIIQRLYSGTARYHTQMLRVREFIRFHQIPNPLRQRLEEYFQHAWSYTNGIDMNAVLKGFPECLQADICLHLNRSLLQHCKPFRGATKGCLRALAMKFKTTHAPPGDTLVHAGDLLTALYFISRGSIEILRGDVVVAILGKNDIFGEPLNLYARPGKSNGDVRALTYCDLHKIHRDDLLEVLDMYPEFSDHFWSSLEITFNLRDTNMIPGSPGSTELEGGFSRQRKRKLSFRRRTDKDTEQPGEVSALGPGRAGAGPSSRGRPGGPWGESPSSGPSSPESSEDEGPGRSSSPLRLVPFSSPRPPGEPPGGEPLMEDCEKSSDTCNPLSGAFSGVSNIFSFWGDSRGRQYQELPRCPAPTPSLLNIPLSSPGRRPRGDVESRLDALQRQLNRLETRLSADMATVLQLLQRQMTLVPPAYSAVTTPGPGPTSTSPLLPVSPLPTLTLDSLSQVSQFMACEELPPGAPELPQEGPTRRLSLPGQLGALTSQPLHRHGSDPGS
# hERG, sequence (Q12809 whole entry): as above
smiles,measurement,setting,value
CN(C)c1ccc2cc3ccc(N(C)C)cc3[n+](CCF)c2c1 [SYN2],"mean response, remaining 65 assays",[1],7.63%
same,"median response, remaining 65 assays",[1],4%
same,Cmax,[2],1.1 nM
same,inhibition,[3],68%
same,inhibition,potassium channel hERG,57%
same,inhibition,[4],58%
same,IC50,muscarinic M2,~1000 nM
same,IC50,hERG,~1000 nM
same,Body weight,Wistar rats; [6],-
same,Clinical observations,Wistar rats; [6],-
same,Mortality,Wistar rats; [6],-
same,Biochemical investigations,Wistar rats; [7],+
same,Enzymatic investigations,Wistar rats; [7],+
same,Haematological investigations,Wistar rats; [7],-
same,Gross examination,Wistar rats; [8],+
same,Histopathological examinations,Wistar rats; [8],+
same,Weight of internal organs,Wistar rats; [8],+
same,Tolerability in the toxicological study,"Wistar rats; single i.v. 2 mg/kg b.w., Wistar rats",well-tolerated
same,No Observed Adverse Effect Level (NOAEL),"Wistar rats; single i.v. dose, Wistar rats",2 mg/kg
same,AUCt,[5]; rat plasma,73.75 ng·h/mL
same,Clast,[5]; rat plasma,8.95 ng/mL
same,Cmax,[5]; rat plasma,368.67 ng/mL
same,Tmax,[5]; rat plasma,4.2 min
same,Vz,[5]; rat plasma,0.99 L/kg
same,Cl,[5]; rat plasma clearance,43.2 mL/min/kg
same,T½λz,"[5]; terminal half-life, rat plasma",15.6 min
same,"Relative abundance of metabolites calculated as % of parent (SYN2), Rat",rat hepatocytes; 30 min,100 % of parent
same,"Relative abundance of metabolites calculated as % of parent (SYN2), Rat",rat hepatocytes; 60 min,100 % of parent
same,unchanged parent remaining,"rat hepatocytes; after 60 min, rat hepatocytes",32%
same,"Relative abundance of metabolites calculated as % of parent (SYN2), Dog",dog hepatocytes; 30 min,100 % of parent
same,"Relative abundance of metabolites calculated as % of parent (SYN2), Dog",dog hepatocytes; 60 min,100 % of parent
same,unchanged parent remaining,"dog hepatocytes; after 60 min, dog hepatocytes",5%
same,"Relative abundance of metabolites calculated as % of parent (SYN2), Human",human hepatocytes; 30 min,100 % of parent
same,"Relative abundance of metabolites calculated as % of parent (SYN2), Human",human hepatocytes; 60 min,100 % of parent
same,unchanged SYN2 remaining,"human hepatocytes; after 60 min, human hepatocytes",70%
